{"source": "patent US6436630B1", "about": "“Method for testing the toxicity of chemical substances using gastropods” (priority 1998, dated 2002)", "key": {"[1]": {"tested_on": "foot mucosa of slugs of species Arion", "test": "Slug mucosal toxicity test, Example 2 (15 min daily treatment, four days)", "settings": "for % WL, weight loss as reduction in body weight caused by the 15 minutes of treatment / % MP, mucus production as % of the body weight at the start of the day before the treatment: 1% w/v in PBS; for % MP, mucus production as % of the body weight at the start of the day before the treatment / ALP released into PBS / LDH released into PBS / Protein released into PBS: 15 min; for ALP released into PBS / LDH released into PBS / Protein released into PBS: 1% w/v, total mean of 3 samples/day per slug", "description": "As test substance a β-blocking agent propranolo HCl (1% w/v) was used. Benzalkonium chloride (1% w/v) and Propranolol (1% w/v) were prepared in PBS (pH 7.4). The slugs were daily incubated during 15 min with the test solution during four days. After the incubation period the slugs were placed on 500 μL PBS in a petri dish. The PBS was sampled every hour and refreshed with 500 μL PBS for 3 hours after the treatment.\nThe enzymes (LDH, ALP) and the total protein released into the PBS were determined. The change in body weight and the mucus production caused by the treatment were examined."}, "[2]": {"tested_on": "foot mucosa of slugs of species Arion", "type": "in vivo", "settings": "in vivo"}, "[3]": {"tested_on": "foot mucosa of slugs of species Limax", "type": "in vivo", "settings": "in vivo", "description": "Slugs of the species Limax are terrestial slugs have lungs and also a small internal shell. As test substances hydroxypropyl-β-cyclodextrin (HPβCD), sodium tauro-24,25-dihdrofiisidate (STDHF) and sodium deoxycholate were selected. Benzalkonium chloride (1% w/v), HPβCD (5% w/v), STDHF (1% w/v) and SDC (1% w/v) were prepared in phosphate buffered saline (PBS, pH 7.4).\nThe enzymes lactate dehydrogenase (LDH) and alkaline phosphatase (ALP) and total protein released into the PBS were determined. The change in body weight and mucus production caused by the treatment were examined."}, "[4]": {"tested_on": "foot mucosa of slugs (species Arion)", "test": "Slug mucosal toxicity test, Example 1 (15 min daily treatment, five days)", "type": "in vivo", "settings": "in vivo", "from_the_text": "Initially, the slugs are kept on a culture under controlled conditions of temperature and humidity until they have reached a stable body weight. The purpose of achieving a stable body weight is to improve the reproducibility of the results, particularly as the release of substances from the slugs may conveniently be measured in terms of the body weight thereof. The slugs are then isolated from the culture and placed in a vented plastic box lined with moist paper towel and placed at 95% relative humidity at 20° C. seven days before the start of an experiment. The slugs were not bred in any particular way, i.e. they were wild slugs. It is anticipated that even more accurate and reproducible results can be obtained by selective breeding of the slugs, although as shown by the test results this is not a necessary requirement of the present invention to obtain accurate and useful data.\nThe test procedure is simple and rapid. The chemical substance to be tested is applied directly to the mucosal membrane of a slug, e.g. to the foot, by placing the slug individually in a petri dish containing the test substance. Slugs treated with phosphate buffered saline are used as a negative control. As a positive control slugs treated with a known toxic substance, benzalkonium chloride, were used.\nBecause the mucosal epithelium of interest is located at the outside of the slug the effect of substances can be easily observed. […] This can also be simply measured by weighing the petri dish before and after the treatment of the slugs with the chemical substance (with the slugs removed in each case). Additionally an indirect response to epithelial damage caused by a chemical substance may be determined by the reduction of the body weight of the slugs due to the leakage of haemolymphatic fluids through the damaged foot surface.\nAfter the treatment the slugs are transferred individually to a fresh petri dish containing phosphate buffered saline. After a suitable exposure time, e.g. 1 hour the phosphate buffered saline is collected and analysed for the presence of proteins and/or enzymes, e.g. lactate dehydrogenase and/or alkaline phosphatase, or other marker substances released from the foot or epithelium of the slug, for example membrane associated components such as phospholipids or cholesterol. This procedure can be repeated after periods of several hours in order to determine the reversibility of the cell damage caused by the test chemical substance. The concentration or amount of the chemical substance to be tested can be changed and the influence of the concentration can be easily examined. The exposure time can also be changed if required. The slugs can be treated during several successive days in order to investigate the subchronical effect of substances on the foot mucosa.\nSeven days before the start of the experiment the slugs were isolated in a plastic box lined with moist paper towel and placed at 95% relative humidity at 20° C. As test substances didecanyol-L-α-phosphatidylcholine (DDPC) and sodium deoxycholate (SDC) were selected. Benzalkonium chloride (1% w/v), SDC (1% w/v) and DDPC (1%, w/v) were prepared in phosphate buffered saline (PBS, pH 7.4). […] During the test the slugs are preferably kept in a generally calm and normal state and are not subjected to mechanical vibrations or mechanical or electrical disturbances which may affect mucus production.\nThe enzymes (lactate dehydrogenase (LDH) and alkaline phosphatase (ALP)) and total protein released into the PBS were determined. The slugs were weighed before and after the incubation period to determine the body weight changes. The mucus production was measured by weighing the petri dishes before and after the treatment with a test substance. The results are shown in Table 1 and shown graphically in FIGS. 1 to 5."}}}
{"substance": "Benzalkonium chloride", "values": [{"measurement": "% WL, weight loss as reduction in body weight caused by the 15 minutes of treatment", "setting": "[1]; day 1", "result": 7.17, "unit": "%"}, {"measurement": "% MP, mucus production as % of the body weight at the start of the day before the treatment", "setting": "[1]; day 1", "result": 3.28, "unit": "%"}, {"measurement": "ALP released into PBS", "setting": "[1]; day 1", "result": 0.56, "unit": "U/L"}, {"measurement": "LDH released into PBS", "setting": "[1]; day 1", "result": 1.92, "unit": "U/L"}, {"measurement": "Protein released into PBS", "setting": "[1]; day 1", "result": 8.36, "unit": "μg/30 μL"}, {"measurement": "% WL, weight loss as reduction in body weight caused by the 15 minutes of treatment", "setting": "[1]; day 2", "result": 4.32, "unit": "%"}, {"measurement": "% MP, mucus production as % of the body weight at the start of the day before the treatment", "setting": "[1]; day 2", "result": 2.75, "unit": "%"}, {"measurement": "ALP released into PBS", "setting": "[1]; day 2", "result": 3.42, "unit": "U/L"}, {"measurement": "LDH released into PBS", "setting": "[1]; day 2", "result": 6.27, "unit": "U/L"}, {"measurement": "Protein released into PBS", "setting": "[1]; day 2", "result": 4.08, "unit": "μg/30 μL"}, {"measurement": "% WL, weight loss as reduction in body weight caused by the 15 minutes of treatment", "setting": "[1]; day 3", "result": 2.87, "unit": "%"}, {"measurement": "% MP, mucus production as % of the body weight at the start of the day before the treatment", "setting": "[1]; day 3", "result": 2.35, "unit": "%"}, {"measurement": "ALP released into PBS", "setting": "[1]; day 3", "result": 5.64, "unit": "U/L"}, {"measurement": "LDH released into PBS", "setting": "[1]; day 3", "result": 8.11, "unit": "U/L"}, {"measurement": "Protein released into PBS", "setting": "[1]; day 3", "result": 11.69, "unit": "μg/30 μL"}, {"measurement": "% WL, weight loss as reduction in body weight caused by the 15 minutes of treatment", "setting": "[1]; day 4", "result": 3.61, "unit": "%"}, {"measurement": "% MP, mucus production as % of the body weight at the start of the day before the treatment", "setting": "[1]; day 4", "result": 3.09, "unit": "%"}, {"measurement": "ALP released into PBS", "setting": "[1]; day 4", "result": 15.59, "unit": "U/L"}, {"measurement": "LDH released into PBS", "setting": "[1]; day 4", "result": 48.65, "unit": "U/L"}, {"measurement": "Protein released into PBS", "setting": "[1]; day 4", "result": 11.79, "unit": "μg/30 μL"}, {"measurement": "membrane damage (in words)", "setting": "[2]", "result": "severe membrane damage"}, {"measurement": "ranking order of increasing toxicity", "setting": "[2]", "result": "PBS, 5% HPβCD<1% STDHF<1% SDC and 1% BAC"}, {"measurement": "reduction in body weight to % of the initial weight", "setting": "[2]", "result": "about 50%"}, {"measurement": "membrane damage (in words)", "setting": "[3]", "result": "severe membrane damage"}, {"measurement": "ranking order of increasing toxicity", "setting": "[3]", "result": "PBS, 5% HPβCD<1% STDHF<1% SDC and 1% BAC"}, {"measurement": "reduction in body weight to % of the initial weight", "setting": "[3]", "result": "about 50%"}, {"measurement": "membrane damage (in words)", "setting": "[4]", "result": "severe membrane damage"}]}
